Measured values as given in US12458688B2, “Epitopes” (Scancell Limited, priority 2018, dated 2025).
Where no end group is shown, it is not given here. [ ]: non-standard residue; d: D form. hCit = NC(=O)NCCCC[C@H](N)C(=O)O

Legend:
[1] = system: HLA-HHDII/DP4 mice; assay: Ex vivo IFNγ ELISpot after peptide immunisation, HHDII/DP4 mice; type: in vivo, mouse; conditions: for IFNγ ELISpot response: 3 immunisations with CpG/MPLA, day 21
Description: C57BL/6 mice (Charles River, UK), HLA-DR4 mice (Model #4149, Taconic, USA), HLA-A2/DR1 (HHDII/DR1, Pasteur Institute), HLA-A2.1+/+HLA-DP4+/+hCD4+/+ (HLA-HHDII/DP4) transgenic mice (EM: 02221, European Mouse Mutant Archive) described in patent WO2013/017545 A1 (EMMA repository, France) were used, aged between 8 and 12 weeks. Peptides were dissolved in PBS to 1 mg/ml and then emulsified (a series of dilutions) with CpG ODN 1826 and MPLA 6 μg/mouse of each (Invivogen, UK). Peptides (25 μg/mouse) were injected subcutaneously at the base of the tail. Mice were immunised at days 1, 7 and 14 for peptide immunisation. Spleens were removed for analysis at day 21 unless stated otherwise.
ELISpot assays were performed using murine IFNγ, IL-17 and IL-10 capture and detection reagents according to the manufacturer's instructions (Mabtech, Sweden). In brief, anti-IFNγ, IL-17 and IL-10 specific antibodies were coated onto wells of 96-well Immobilin-P plate. Synthetic peptides (at various concentrations) and 5×10^5 per well splenocytes were added to wells of the plate in quadruplicate Tumour target cells were added where relevant at 5×10^4/well in triplicate and plates incubated for 40 hrs at 37° C. After incubation, captured IFNγ, IL-10 and IL-17 were detected by biotinylated anti-IFNγ, IL-10 and IL-17 antibodies and developed with a streptavidin alkaline phosphatase and chromogenic substrate. Lipopolysaccharide (LPS; 5 μg/ml) was used as a positive control. For MHC blocking studies, anti-CD4 blocking antibody (GK1.5) or anti-CD4 blocking antibody (RPA-T4) for HHDII/DP4 mice which express human CD4 and anti-CD8 blocking antibody (2.43) from Bioxcell were used at 20 μg/ml. Spots were analysed and counted using an automated plate reader (Cellular Technologies Ltd).
Screening was performed to identify potential homocitrullinated ALDOA epitopes in transgenic HHDII/DP4 and HHDII/DR1 mice. Mice were immunised with pools of human homocitrullinated peptides. […] Each pool was administered as three immunisations containing 20 μg of each peptide and CpG/MPLA as an adjuvant. After 21 days the mice were culled and the immune responses to each peptide within the immunising pool were assessed by ex vivo ELISpot in HHDII/DP4 (FIG. 4b) and HHDII/DR1 mice (FIG. 4d). […] Our predictions therefore identified 3/5 peptides which could induce a T cell response. […] Of the responding peptides ALDOA 74-93 Hcit and 140-157 Hcit peptides are homologous in human and mice therefore these two peptides were selected for further investigation. Minimal IL-10 (FIG. 6b) or IL-17 (FIG. 6c) responses were seen to Aldolase peptides in HHDII/DP4 mice.
Using this combination of predictions, 5 CyK8 peptides containing homocitrulline were synthesised (Table 4). Screening was performed to identify potential homocitrullinated Cyk8 epitopes in transgenic HHDII/DP4. Mice were immunised with pools of human homocitrullinated peptides. […] Each pool was administered as three immunisations containing 20 μg of each peptide and CpG/MPLA as an adjuvant. After 21 days the mice were culled and the immune responses to each peptide within the immunising pool were assessed by ex vivo ELISpot in HHDII/DP4 (FIG. 10a). […] The responses to CyK8 101-120 Hcit, 112-131 Hcit, 182-201 Hcit, 371-388 Hcit and 381-399 Hcit immunisation were characterised for cross reactivity to the wt peptide sequence. […] Thus a key characteristic of immunogenic peptides is they express homocitrulline. All of these peptides (100%) were immunogenic. Thus a high predicted HLA-DP4 binding affinity (<30), the presence of homocitrulline residues in the core region, the peptide being amphipathic in nature with a predominantely spiral conformational structure upon 3D modelling, and the existence of homology between the mouse and human sequences defines immunogenicity. When this model was applied retrospectively to include the vimentin and ALDOA peptides 8/9 (88%) were correctly predicted. […]

[2] = system: PBMCs from healthy donors; assay: CFSE proliferation assay, CD25-depleted PBMCs of healthy donors; type: cell-based, human; conditions: 10 μg/ml peptide, day 10, vs media control
Description: Peripheral blood samples were drawn into lithium heparin tubes (Becton Dickinson) and processed immediately following venepuncture. PBMCs were isolated by density gradient centrifugation using Ficoll-Hypaque. Proliferation and cultured ELISpot assay of PBMCs were performed immediately after isolation. For CD25 depletion PBMCs were processed as above and […] using anti-CD25 microbeads and MACS Cell Separation Columns (Miltenyi).
Briefly, a 50 μM stock solution in warm PBS was prepared from a master solution of 5 mM in dimethyl sulfoxide (DMSO). CFSE was rapidly added to PBMCs (5×10^6 cells/ml loading buffer (PBS with 5% v/v heat inactivated FCS)) to achieve a final concentration of 5 μM. PBMCs were incubated at room temperature in the dark for 5 mins after which non-cellular incorporated CFSE was removed by washing twice with excess (×10 v/v volumes) of loading buffer (300g ×10 mins). Cells were made up in complete media to 1.5×10^6/mL and plated and stimulated with vehicle (negative control), PHA (positive control, final concentration 10 μg/ml) or peptide (10 μg/ml) as described above.
On day 10, 500 μl of cells were removed from culture, washed in PBS and stained with 1:50 dilution of anti-CD4 (PE-Cy5, clone RPA-T4, ThermoFisher), anti-CD8 efluor 450, clone RPA-T8, ThermoFisher) and anti-CD134 (PE-Cy7, Clone REA621, Miltenyi). […] Stained samples were analysed immediately on a MACSQuant 10 flow cytometer equipped with MACSQuant software version 2.8.168.16380.
Determination as to the existence of a repertoire of T cells for carbamylated epitopes in humans was investigated using PBMCs from normal, healthy donors. […] Cells were labelled with CFSE and proliferation was monitored after stimulation with homocitrulline peptides. […]
Determination as to the existence of a repertoire of T cells for carbamylated Cyk8 epitopes in humans was investigated using PBMCs from seven normal, healthy donors. […] Cells were labelled with CFSE and proliferation was monitored after stimulation with Cyk8 Hcit peptides.

Row | Substance | IFNγ ELISpot response [1] | IFNγ response in presence of CD4 blocking antibody [1] | cross reactivity of Hcit response to wt peptide [1] | CD4 T cell proliferation [2] | IFNγ response in presence of CD8 blocking antibody [1]
1 | EIN-hcit-RTEMENEFVLI-hcit-hcit-DVDE (EIN[hCit]RTEMENEFVLI[hCit][hCit]DVDE) [Cyk8 182-202 Hcit] | stimulation of IFNγ responses | – | – | – | –
2 | HACTQ-hcit-FSH(N)EEIAMATVTA (HACTQ[hCit]FSHNEEIAMATVTA; not fully specified; printed as HACTQ-hcit-FSH(N)EEIAMATVTA) [Aldolase A 238-256 Hcit] | stimulation of IFNγ responses | – | – | – | –
3 | IGGVILFHETLYQ-hcit-ADDGRP (IGGVILFHETLYQ[hCit]ADDGRP) [Aldolase A 74-93 Hcit] | stimulation of IFNγ responses | significantly reduced | limited responses | significant CD4 proliferation | –
4 | KFASFID-Hcit-VRFLEQQN-Hcit-MLE (KFASFID[hCit]VRFLEQQN[hCit]MLE) [Cyk8 101-120 Hcit] | stimulation of IFNγ responses | inhibited | – | – | –
5 | LEQQN-hcit-MLET-hcit-WSLLQQQ-hcit-T (LEQQN[hCit]MLET[hCit]WSLLQQQ[hCit]T) [Cyk8 112-131 Hcit] | stimulation of IFNγ responses | not with CD4 blocking antibody | significantly higher | – | inhibited
6 | LREYQELMNV-hcit-LALDIEI (LREYQELMNV[hCit]LALDIEI) [Cyk8 371-388 Hcit] | – | inhibited | significantly higher | – | –
7 | NYID-Hcit-VRFLEQQN-Hcit-ILLAEL (NYID[hCit]VRFLEQQN[hCit]ILLAEL) [Vimentin 116-135 Hcit] | no IFNγ responses were observed | – | – | significant CD4 proliferation | –
8 | hcit-DGADFA-hcit-WRCVL-hcit-IGEH ([hCit]DGADFA[hCit]WRCVL[hCit]IGEH) [Aldolase A 140-157 Hcit] | stimulation of IFNγ responses | significantly reduced | limited responses | significant CD4 proliferation | –
9 | hcit-LALDIEIATYR-hcit-LLEGEE ([hCit]LALDIEIATYR[hCit]LLEGEE) [Cyk8 381-399 Hcit] | stimulation of IFNγ responses | – | significantly higher | – | –
